From publication PMC9212912 (Structure (London, England : 1993), 2022)

Test system: SARS-CoV-2 (Delta variant, pangolin linage B.1.617.2)
Test: microbe, parasite or virus in culture
Format: cell-based

SMILES | Inhibition of SARS-CoV-2 infection in Calu-3 cells (0.01 µM) [%] | inhibition at 0.01 µM (Severe acute respiratory syndrome coronavirus 2, Calu-3, 24 h, read-out: Inhibition of SARS-CoV-2 infection in Calu-3 cells) [%]
Cc1sc2c(c1C)C(c1ccc(Cl)cc1)=N[C@@H](CC(=O)OC(C)(C)C)c1nnc(C)n1-2 [JQ1] | 72 | 
Cc1sc2c(c1C)C(c1ccc(Cl)cc1)=N[C@@H](CC(=O)Nc1ccc(O)cc1)c1nnc(C)n1-2 [OTX015] |  | 69
